Patent US9688670B2, “Benzimidazole compounds and medical uses thereof” (Sumitomo Dainippon Pharma Co., Ltd., priority 2015, dated 2017)

Biological target: human SCN9A (Nav 1.7) (Homo sapiens, UniProt Q15858)
Assay: Measurement of Na ion current (Nav 1.7 current) by automated patch clamp assay using cells stably-expressing human SCN9A
Assay type: cell-based
Settings: concentration of each compound 10 μmol/L, holding potential inactivating 50% Nav 1.7 channel (around −60 mV), room temperature
Procedure: Measurement of Na Ion Current in Voltage-Dependent Na Channel Gene Expressed Cell Nav 1.7 current was measured by automated patch clamp assay using cells stably-expressing human SCN9A. Cells Stably-Expressing Human SCN9A Tetracycline-induced cells stably-expressing SCN9A were obtained from ChanTest Corporation. […] Next day, the Na ion current was measured by automated patch clamp assay. Electrophysiologic Measurement of Na Ion Current The Na ion current was measured by automated patch clamp assay using the following extracellular solution and intracellular solution. […] The control of the stimulating pulse and the data acquisition were carried out using EPC10 amplifier and Patch Master Software (HEKA). Data were sampled at 10 kHz, and low-pass filtered at 3 kHz. All the measurements were carried out at room temperature. […] The inhibitory rate of the Na ion current by the test compounds was calculated according to the following calculating formula with the peak current value generated by the depolarizing pulse. […] The inhibitory rate of Na ion current by each Example Compound was evaluated.

Chain of human SCN9A (Nav 1.7) (Q15858 whole entry): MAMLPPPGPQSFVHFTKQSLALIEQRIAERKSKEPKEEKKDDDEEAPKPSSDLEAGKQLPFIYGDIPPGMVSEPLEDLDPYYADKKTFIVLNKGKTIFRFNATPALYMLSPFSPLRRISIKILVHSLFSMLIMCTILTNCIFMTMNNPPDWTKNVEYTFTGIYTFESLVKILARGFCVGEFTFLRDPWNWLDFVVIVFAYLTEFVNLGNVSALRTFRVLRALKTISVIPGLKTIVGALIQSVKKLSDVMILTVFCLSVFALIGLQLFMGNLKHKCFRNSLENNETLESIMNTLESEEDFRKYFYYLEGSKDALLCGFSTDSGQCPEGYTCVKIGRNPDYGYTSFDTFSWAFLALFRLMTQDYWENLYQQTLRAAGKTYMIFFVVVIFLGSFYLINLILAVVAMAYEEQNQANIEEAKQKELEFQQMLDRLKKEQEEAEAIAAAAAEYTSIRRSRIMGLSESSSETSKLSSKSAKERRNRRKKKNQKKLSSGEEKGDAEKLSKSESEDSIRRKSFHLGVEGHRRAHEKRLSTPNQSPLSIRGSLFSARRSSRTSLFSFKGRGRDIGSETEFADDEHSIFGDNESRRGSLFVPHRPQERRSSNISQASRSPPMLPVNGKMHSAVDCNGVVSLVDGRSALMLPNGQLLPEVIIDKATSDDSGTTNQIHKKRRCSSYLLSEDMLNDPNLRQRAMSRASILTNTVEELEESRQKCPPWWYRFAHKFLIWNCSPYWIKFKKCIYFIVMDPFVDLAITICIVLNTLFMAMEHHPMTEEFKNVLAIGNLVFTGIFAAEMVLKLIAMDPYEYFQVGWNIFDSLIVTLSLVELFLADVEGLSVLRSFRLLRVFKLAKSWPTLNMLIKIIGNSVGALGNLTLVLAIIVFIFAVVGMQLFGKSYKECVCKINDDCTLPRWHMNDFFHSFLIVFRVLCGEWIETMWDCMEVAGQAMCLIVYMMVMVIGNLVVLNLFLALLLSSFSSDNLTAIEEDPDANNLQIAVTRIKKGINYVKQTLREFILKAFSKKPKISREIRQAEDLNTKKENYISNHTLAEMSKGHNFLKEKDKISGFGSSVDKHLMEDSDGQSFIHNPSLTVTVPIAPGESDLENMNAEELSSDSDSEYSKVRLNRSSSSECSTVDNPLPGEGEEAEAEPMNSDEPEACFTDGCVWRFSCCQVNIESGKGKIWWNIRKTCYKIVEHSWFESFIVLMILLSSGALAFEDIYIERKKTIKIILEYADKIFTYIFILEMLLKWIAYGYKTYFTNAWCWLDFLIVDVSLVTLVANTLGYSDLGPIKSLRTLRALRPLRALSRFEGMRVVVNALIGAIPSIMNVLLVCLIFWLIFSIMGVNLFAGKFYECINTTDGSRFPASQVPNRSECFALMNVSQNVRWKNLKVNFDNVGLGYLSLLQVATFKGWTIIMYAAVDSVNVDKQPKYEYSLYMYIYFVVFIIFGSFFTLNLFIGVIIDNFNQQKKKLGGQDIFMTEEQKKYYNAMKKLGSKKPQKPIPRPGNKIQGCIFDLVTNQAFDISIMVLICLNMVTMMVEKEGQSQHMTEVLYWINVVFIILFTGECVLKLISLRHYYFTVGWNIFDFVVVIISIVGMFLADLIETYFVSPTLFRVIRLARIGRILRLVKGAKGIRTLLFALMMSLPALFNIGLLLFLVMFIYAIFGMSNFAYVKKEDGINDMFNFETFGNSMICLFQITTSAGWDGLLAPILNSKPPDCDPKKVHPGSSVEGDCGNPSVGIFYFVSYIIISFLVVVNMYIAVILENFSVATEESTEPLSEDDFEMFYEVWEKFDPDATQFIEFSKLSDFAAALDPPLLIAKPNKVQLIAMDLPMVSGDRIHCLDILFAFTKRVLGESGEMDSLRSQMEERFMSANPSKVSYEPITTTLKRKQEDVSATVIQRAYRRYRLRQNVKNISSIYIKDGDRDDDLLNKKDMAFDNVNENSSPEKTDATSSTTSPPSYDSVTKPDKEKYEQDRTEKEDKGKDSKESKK

SMILES	inhibition at 10 µM (read-out: Inhibitory rate (%) of Na ion current) [%]	Inhibitory rate (%) of Na ion current [%]
C[C@]1(O)C[C@@H](n2cnc3ccc(Oc4ccc(C(F)(F)F)cn4)cc32)C1 [Example 121]	21	
OC1(Cn2cnc3ccc(Oc4ccc(C(F)(F)F)cc4)cc32)COC1 [Example 90]		15
